The values that follow come from patent publication US20230150924A1, “NOVEL COMPOUND HAVING CANCER METASTASIS INHIBITORY ACTIVITY, PREPARATION METHOD THEREFOR, AND PHARMACEUTICAL COMPOSITION FOR INHIBITING CANCER METASTASIS AND INVASION OR TREATING COLORECTAL CANCER, COMPRISING COMPOUND” (CELLGENTEK CO., LTD., priority 2019, published 2023).

SMILES strings stand for the structures.

The test system of assay [1] is invasion of colorectal cancer cells. Kind of assay: In vivo relative invation (invasion; EV and KITENIN controls, no method described). Particulars: relative to EV (=1); KIT = KITENIN.
Another assay concerns KAI1 promoter. Put plainly: KAI1 promoter luciferase reporter assay in transfected Caco2 cells. In kind it is cell-based, human. Particulars: Homo sapiens, Caco-2, 16 h, 1 μM compound, 16 hours, transfected Caco2 cells, luciferase activity relative to DMSO control (=1); read-out: Relative KAI promoter activity. In general terms: A reporter such as luciferase makes a cellular process visible.

On to `O=C(CNC(=O)c1ccccc1OC1CCN(C(=O)c2cccc(Cl)c2Cl)CC1)c1ccccc1` [Example 198, 2-((1-(2,3-dichlorobenzoyl)piperidin-4-yl)oxy)-N-(2-oxo-2-phenylethyl)benzamide], for which, in assay [1], the “In vivo relative invation” value is 1.15. Moreover, in the assay with KAI1 promoter, the fold induction at 1 µM is 0.87.
Consider `O=C(CNC(=O)c1ccccc1OC1CCN(C(=O)c2ccc(OC(F)(F)F)cc2)CC1)c1ccccc1` [Example 199, N-(2-oxo-2-phenylethyl)-2-((1-(4-(trifluoromethoxy)benzoyl)piperidin-4-yl)oxy)benzamide], for which the “In vivo relative invation” value in assay [1] turned out to be 1.105. For the same compound, the fold induction at 1 µM with KAI1 promoter turned out to be 0.97.
Consider `O=C(CNC(=O)c1ccccc1OC1CCN(C(=O)c2cccc(OC(F)(F)F)c2)CC1)c1ccccc1` [Example 200, N-(2-oxo-2-phenylethyl)-2-((1-(3-(trifluoromethoxy)benzoyl)piperidin-4-yl)oxy)benzamide], for which the “In vivo relative invation” value in assay [1] came out at 1.074. The fold induction at 1 µM with KAI1 promoter is 1.01.
`O=C(COc1ccccc1C(=O)NCC(=O)c1ccccc1)Nc1ccccc1` [Example 201, 2-(2-oxo-2-(phenylamino)ethoxy)-N-(2-oxo-2-phenylethyl)benzamide]: the “In vivo relative invation” value in assay [1] stood at 0.9283. For the same compound, in the assay with KAI1 promoter, the fold induction at 1 µM turned out to be 1.46.
The like results for `Cc1ccccc1NC(=O)COc1ccccc1C(=O)NCC(=O)c1ccccc1` [Example 202, 2-(2-oxo-2-(o-toylamino)ethoxy)-N-(2-oxo-2-phenylethyl)benzamide] were, in that order, 1.138 and 1.31.
Take `C=CCNC(=O)COc1ccccc1C(=O)NCC(=O)c1ccccc1` [Example 203, 2-(2-(allylamino)-2-oxoethoxy)-N-(2-oxo-2-phenylethyl)benzamide]: the “In vivo relative invation” value in assay [1] was 1.178. For the same compound, the fold induction at 1 µM with KAI1 promoter came to 1.05.
`O=C(COc1ccccc1C(=O)NCC(=O)c1ccccc1)NCc1ccccc1` [Example 204, 2-(2-(benzylamino)-2-oxoethoxy)-N-(2-oxo-2-phenylethyl)benzamide]: in assay [1], the “In vivo relative invation” value was 1.095. Besides, the fold induction at 1 µM in the assay on KAI1 promoter amounted to 1.3.
On to `O=C(COc1ccccc1C(=O)NCC(=O)c1ccccc1)NCc1cccc(F)c1` [Example 205, 2-(2-((fluorobenzyl)amino)-2-oxoethoxy)-N-(2-oxo-2-phenylethyl)benzamide], for which the “In vivo relative invation” value in assay [1] worked out at 1.166. Moreover, in the assay on KAI1 promoter, the fold induction at 1 µM came to 1.1.
Take `COc1cc(C)ccc1NC(=O)COc1ccccc1C(=O)NCC(=O)c1ccccc1` [Example 206, 2-(2-((2-methoxy-4-methylphenyl)amino)-2-oxoethoxy)-N-(2-oxo-2-phenylethyl)benzamide]: the “In vivo relative invation” value in assay [1] is reported as 1.11. The fold induction at 1 µM in the assay with KAI1 promoter worked out at 1.05.
The matching figures for `COc1ccc(NC(=O)COc2ccccc2C(=O)NCC(=O)c2ccccc2)cc1F` [Example 207, 2-(2-((3-fluoro-4-methoxyphenyl)amino)-2-oxoethoxy)-N-(2-oxo-2-phenylethyl)benzamide]: 1.036 and 1.43.
Consider `O=C(COc1ccccc1C(=O)NCC(=O)c1ccccc1)Nc1cccnc1` [Example 208, 2-(2-oxo-2-(pyridin-3-ylamino)ethoxy)-N-(2-oxo-2-phenylethyl)benzamide], for which the “In vivo relative invation” value in assay [1] was 1.184. For the same compound, the fold induction at 1 µM in the assay with KAI1 promoter was found to be 1.14.
The like results for `COc1cccc(NC(=O)COc2ccccc2C(=O)NCC(=O)c2ccccc2)c1` [Example 209, 2-(2-((3-methoxyphenyl)amino)-2-oxoethoxy)-N-(2-oxo-2-phenylethyl)benzamide] were, in that order, 1.07 and 1.12.
As to `CCCc1ccccc1NC(=O)COc1ccccc1C(=O)NCC(=O)c1ccccc1` [Example 210, 2-(2-oxo-2-((2-propylphenyl)amino)ethoxy)-N-(2-oxo-2-phenylethyl)benzamide], in assay [1], the “In vivo relative invation” value is 0.9274. Besides, the fold induction at 1 µM in the assay on KAI1 promoter was determined as 1.03.
